# Columns and labels:
# [1] = tested on: mouse myopia-induced model; test: Mouse myopia-induced model (−30 D minus lens): suppression of myopia induction; conditions: for difference of variation in refractive value between lens-worn eyes and control eyes / difference of variation in axial length of the eye between lens-worn eyes and control eyes: 50 μM in PBS; for difference of variation in refractive value between lens-worn eyes and control eyes: FIG. 8A right graph; for difference of variation in axial length of the eye between lens-worn eyes and control eyes: FIG. 8B right graph; for refractive value variation of lens-worn myopia-induced eyes vs PBS administered group / axial length of the eye variation of lens-worn myopia-induced eyes vs PBS administered group: three weeks; for refractive value variation of lens-worn myopia-induced eyes vs PBS administered group: FIG. 6 left; for axial length of the eye variation of lens-worn myopia-induced eyes vs PBS administered group: FIG. 6 right
# Method: Specifically, the mouse myopia-induced model is prepared as follows. Because it is easier to induce myopia to a juvenile mouse, it is preferable to mount the minus lens as soon as possible after the weaning. A 3-week-old C57BL6J is used here. The mouse is anesthetized with three types-mixed anesthetic of Domitor (Nippon Zenyaku Kogyo Co., Ltd.), Betorphal (Meiji Seika Pharma Co., Ltd.), and Midazolam (Sandoz K. K.). The skull is then opened with scissors. A post 1 is erected in the skull and fixed with dental cement (Super-Bond, Sun Medical Co., Ltd.). The post is threaded to fix an adjusting instrument described later with a nut.
# To induce myopia, −30 diopter (D) minus lens (Rainbow contact, Rainbow Optical Laboratory Co., Ltd.) 2 is mounted on one side, and 0 D lens or only frame 3 is mounted on the other side as a control. A protector 4 having a laterally projected shape is mounted to a frame part in the lower portion of the lens to prevent the mouse from damaging the lens with its forelegs or the like when mounting the lens to the mouse. The protector 4 prevents the mouse from touching the lens, causing no damages on the lens. The protector 4 used here is in the form mounted to the frame part and integrated with it, although it needs not be integrated with the lens as long as the mouse behavior will not damage the lens.
# An adjusting instrument 5 is bonded to a frame part in the upper portion of the lens to adjust the width and angle of the mounted lens in response to the growth of the mouse. The adjusting instrument 5 is folded in a dog leg shape. The adjusting instrument 5 includes one side mounted with the lens and the other side provided with a slot 6 for mounting the adjusting instrument 5 to the post 1 erected in the head. Putting the post 1 over the slot 6 and screwing it with a nut 7 can adhere and fix the adjusting instrument 5 to the skin without compressing the periphery of both eyes of the mouse.
# An adjustment mechanism including three parts of the post 1, the nut 7, and the adjusting instrument 5 can adjust the width and angle to bring the lens to the mouse eye position in response to the growth of the mouse. Further, because the lens is detachable, it is possible to measure the change over time of the axial length of the eye and the refractive value.
# The left eye was worn with only a frame as a control and the right eye was worn with a −30 D lens for three weeks. The refractive value, the axial length of the eye, and the sclera thickness were measured to find the differences between before and after wearing them. The refractive value was measured with a refractometer (Infrared photorefractor for mice, made by Proffesor Schaeffel, University of Tubingen). The axial length of the eye was measured with an SD-OCT (Spectral-Domain Optical Coherence Tomography, Envisu R4310, Bioptigen Inc.). The sclera thickness was measured by obtaining an optical image of a hematoxylin and eosin (HE) stained paraffin piece by an optical microscope (BX53, Olympus Corporation) and then using an imaging software cellSens. The results were analyzed with ANOVA, Turky HSD.
# Then, an analysis was conducted to check for suppression of myopia induction by administration of endoplasmic reticulum stress suppressant. […] Note that only phosphate-buffered saline (PBS) was administered to the control group.
# mouse eye = test: Induction of myopia by eye drop of endoplasmic reticulum stress inducer; assay type: in vivo, C57BL6J mouse; conditions: single eye drop, right eye, one week after administration, FIG. 7
# Method: Because the endoplasmic reticulum stress suppressant has a suppression effect on myopia induction as describe above, it is considered that the endoplasmic reticulum stress directly participates in myopia induction. Then, an analysis was conducted to check for induction of myopia by administration of an agent for inducing endoplasmic reticulum stress. The subject was a 3-week-old male C57BL6J mouse (n=12). The right eye of the mouse was administered once by eye drop with 50 μg/ml of tunicamycin (Tm) (Sigma-Aldrich Co. LLC) or 10 μM of thapsigargin (TG) (Wako Pure Chemical Industries, Ltd.), and the left eye was administered once by eye drop with PBS (Veh).
# [2] = eye drop once a day, one week, n=3
# [3] = 0.2% solution in PBS, eye drop once a day, n=4
# [4] = 2% solution in PBS, eye drop once a day, n=4
molecule,measurement,setting,value
Cc1c(O)cccc1C(=O)N[C@@H](CSc1ccccc1)[C@H](O)CN1C[C@H]2CCCC[C@H]2C[C@H]1C(=O)NC(C)(C)C [Nelfinavir],difference of variation in refractive value between lens-worn eyes and control eyes,[1]; [2],significant decrease in difference of variation
same,difference of variation in axial length of the eye between lens-worn eyes and control eyes,[1]; [2],significant decrease in difference of variation
C/C=C(/C)C(=O)O[C@H]1C(C)=C2[C@H]([C@@H]1OC(=O)CCCCCCC)[C@@](C)(OC(C)=O)C[C@H](OC(=O)CCC)[C@@]1(O)[C@H]2OC(=O)[C@@]1(C)O [thapsigargin],axial length of the eye variation vs PBS administered eyes (myopia induction),mouse eye; 10 μM,significant differences were recognized
same,refractive value variation vs PBS administered eyes (myopia induction),mouse eye; 10 μM,significant differences were recognized
Cc1cccc(CC(=O)N2CCc3c2ccc(-c2cn(C)c4ncnc(N)c24)c3F)n1 [GSK2656157],difference of variation in refractive value between lens-worn eyes and control eyes,[1]; [2],significant decrease in difference of variation
same,difference of variation in axial length of the eye between lens-worn eyes and control eyes,[1]; [2],significant decrease in difference of variation
"C[C@H](CCC(=O)NCCS(=O)(=O)O)[C@H]1CC[C@H]2[C@@H]3[C@@H](O)C[C@@H]4C[C@H](O)CC[C@]4(C)[C@H]3CC[C@]12C [tauroursodeoxycholic acid, Tauroursodeoxycholic acid]","changes in the refractive value, −30 D lens-worn eyes vs only frame-worn eyes","[1]; 100 mg/kg once a day intraperitoneal, one week after wearing the lens, n=4, FIG. 5 left",no differences were recognized between both types of eyes
same,changes in the axial length of the eye of myopia-induced eyes vs PBS administered group,"[1]; 100 mg/kg once a day intraperitoneal, one week after wearing the lens, n=4, FIG. 5 right",significant changes were recognized in the axial length of the eye
sodium phenylbutyrate,refractive value variation of lens-worn myopia-induced eyes vs PBS administered group,[1]; [3],showed a tendency to suppress changes
same,axial length of the eye variation of lens-worn myopia-induced eyes vs PBS administered group,[1]; [3],showed a tendency to suppress changes
same,"variation in the refractive value, −30 D lens-worn eyes vs only frame-worn eyes","[1]; 200 mg/kg/day intraperitoneal, day 2 to 21 after wearing the lens, measured on day 21, FIG. 4A",no changes were recognized in the refractive value
same,"changes in the axial length of the eye, minus lens-worn eyes vs only frame-worn eyes","[1]; 200 mg/kg/day intraperitoneal, day 2 to 21 after wearing the lens, measured on day 21, FIG. 4B",no difference was recognized in the extension
same,extension of the normal axial length of the eye associated with the growth,"[1]; 200 mg/kg/day intraperitoneal, one week and three weeks after wearing the lens, FIG. 4C",does not affect the extension of the normal axial length of the eye associated with the growth
same,refractive value variation of lens-worn myopia-induced eyes vs PBS administered group,[1]; [4],significant differences were recognized
same,axial length of the eye variation of lens-worn myopia-induced eyes vs PBS administered group,[1]; [4],significant differences were recognized
O=S(=O)(N=Cc1c(O)ccc2ccccc12)c1cccs1 [STF-083010],"refractive value variation, lens-worn eye against lens-unworn control eye","[1]; 60 μM in PBS, eye drop once a day, one week, n=3, FIG. 8A",showed significant changes
same,"axial length of the eye variation, lens-worn eye against lens-unworn control eye","[1]; 60 μM in PBS, eye drop once a day, one week, n=3, FIG. 8B",showed significant changes
tunicamycin,axial length of the eye variation vs PBS administered eyes (myopia induction),mouse eye; 50 μg/ml,significant differences were recognized
same,refractive value variation vs PBS administered eyes (myopia induction),mouse eye; 50 μg/ml,significant differences were recognized

# Source: patent publication US20240210736A1, “MOUSE MYOPIA-INDUCED MODEL AND ENDOPLASMIC RETICULUM STRESS SUPPRESSANT FOR PREVENTING AND SUPPRESSING MYOPIA” (TSUBOTA LABORATORY, INC., priority 2017, published 2024)
